Measurements taken from patent US7528259B2, “Derivatives of 4,5,6,7-tetrabromobenzimidazole and method of their preparation” (Selvita SP. Z O. O., priority 2004, dated 2009).
Like-named read-outs stand apart in the source and are kept apart here.

Columns and labels:
CK1 (casein kinase 1) = assay: Enzymatic activity of kinases, residual activity with inhibitor; assay type: biochemical, rat; conditions: inhibitor at 10 μM; percentage activity without an inhibitor
Experimental: (§1) Tests of enzymatic activity of kinases were carried out using methodology described by Sarno et al. 2003 and are summarized in Table 1. […] Native CK1 (nCK1) and CK2 (nCK2) were purified from rat liver (Meggio et al., 1981); Golgi CK (G-CK), purified from rat lactating mammary gland, was provided by Dr. A. M. Brunati (Padova, Italy). Protein tyrosine kinases Lyn, c-Fgr, Syk (also termed TPK-IIB) were purified from rat spleen as previously referenced (Sarno et al., 2003). Human recombinant α and β subunits of CK2 were expressed in E. coli and the holoenzyme was reconstituted and purified as previously described (Sarno et al., 1996). The […] and […] CK2 mutants were obtained as described previously (Sarno et al., 2003). […] double mutant was obtained with the “QuikChange-SiteDirected Mutagenesis” kit (Stratagene), using human […] cDNA α inserted in pT7-7 vector as template and two synthetic oligonucleotide primers, [NT] and [NT], each complementary to opposite strands of template. Expression and purification of the mutant was performed as previously described (Sarno et al., 2003).

[1] = test system: G-CK (casein kinase from Golgi apparatus); assay: as above; assay type: biochemical, rat; conditions: inhibitor at 10 μM; percentage activity without an inhibitor
Experimental: as §1

DYRK1a = DYRK1a (Homo sapiens, UniProt Q13627); assay: as above; assay type: biochemical; conditions: inhibitor at 10 μM; percentage activity without an inhibitor
Experimental: Tests of enzymatic activity of kinases were carried out using methodology described by Sarno et al. 2003 and are summarized in Table 1. The residual activity was determined by incubation in the presence of inhibitor at a concentration of 10 μM and expressed as percentage activity without an inhibitor.
Saccharomyces cerevisiae piD261 was provided by Dr. S. Facchin (Padova, Italy). The source of all the other protein kinases used for specificity assays is either described or referenced by Davies et al. (2000).

CK2 = molecular target: T1, CK2 (Rattus norvegicus, UniProt P19139); assay: CK2 phosphorylation assay, kinetic determination of inhibition constant; assay type: biochemical
T1 construct: Native CK1 (nCK1) and CK2 (nCK2) were purified from rat liver; from tissue; host or cells: rat liver

[2] = test system: human leukemia Jurkat T cells; assay: Cytotoxic effect, MTT viability assay; assay type: cell-based; conditions: 24 hours
Experimental: Leukemia Jurkat cells were incubated for 24 hours in a medium of increasing concentration of 4,5,6,7-tetrabromobenzimidazole (TBB) or 2-dimethylamino-4,5,6,7-tetrabromobenzimidazole (K25). The cytotoxic effect was assessed by means of staining with a use of MTT, (3-(4,5-dimethylthiazol-2-yl)-3,5-diphenyltriazolium bromide, reagent. Control cells were incubated in a medium with added solvent (DMSO, 05% v/v). The results were calculated as mean values of three experiments. The resulting cytotoxic effect of 4,5,6,7-tetrabromo-2-dimethylaminobenzimidazole on human leukemia Jurkat T cells is presented in FIG. 1. […].
The human leukemia Jurkat T-cell line was maintained in RPMI-1640, supplemented with 10% (v/v) fetal calf serum, 2 mM L-glutamine, 100 units/ml penicillin and 100 ug/ml streptomycin. For the treatment, cells were suspended at a density of 10^6 cells/ml in a medium containing 1% (v/v) fetal calf serum, then incubated at 37° C., in the presence of the compounds at the indicated concentrations. Control cells were treated with equal amounts of solvent inhibitor was solved. […]
(§2) Cell viability was assessed by means of 3-(4,5-dimethylthiazol-2-yl)-3,5-diphenyltriazolium bromide (MTT) reagent, while caspase activation was followed by Western blot monitoring of PARP and HS1 protein degradation, as previously described (Ruzzene et al., 2002).

[3] = test system: human leukemia Jurkat cells; assay: Caspase activation by Western blot of PARP and HS1 degradation; assay type: cell-based; conditions: 14 hours, 5 or 10 uM, FIG. 2
Experimental: Leukemia Jurkat cells were incubated for 14 hours without the addition of 2-dimethylamino-4,5,6,7-tetrabromobenzimidazole (C), and in a medium including 5 or 10 uM of 2-dimethylamino-4,5,6,7-tetrabromobenzimidazole and 50 ng/mL of antiFas (aF), a control substance to follow the apoptosis process.
The human leukemia Jurkat T-cell line was maintained in RPMI-1640, supplemented with 10% (v/v) fetal calf serum, 2 mM L-glutamine, 100 units/ml penicillin and 100 ug/ml streptomycin. For the treatment, cells were suspended at a density of 10^6 cells/ml in a medium containing 1% (v/v) fetal calf serum, then incubated at 37° C., in the presence of the compounds at the indicated concentrations. Control cells were treated with equal amounts of solvent inhibitor was solved. At the end of incubations, cells were lysed by the addition of hypoosmotic buffer, as previously described (Sarno et al., 2003).
as §2

isolated mitochondria = assay: Depolarization of isolated mitochondria
[4] = CK2, competitive with respect of ATP, read-out: Inhibition constant Ki

T1 sequence (P19139 whole entry): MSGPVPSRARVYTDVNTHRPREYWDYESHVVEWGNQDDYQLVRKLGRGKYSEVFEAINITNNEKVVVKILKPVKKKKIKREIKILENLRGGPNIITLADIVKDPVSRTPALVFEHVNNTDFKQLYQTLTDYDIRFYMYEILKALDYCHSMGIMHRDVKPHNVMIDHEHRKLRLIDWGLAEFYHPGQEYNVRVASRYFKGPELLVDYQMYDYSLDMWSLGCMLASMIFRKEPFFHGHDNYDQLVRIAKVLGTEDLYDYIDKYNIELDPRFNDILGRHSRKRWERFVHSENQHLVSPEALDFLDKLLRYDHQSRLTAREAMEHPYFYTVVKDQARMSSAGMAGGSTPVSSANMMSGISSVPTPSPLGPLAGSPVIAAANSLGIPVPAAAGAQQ
T1 sequence (P67874 2-215 partner limits assumed): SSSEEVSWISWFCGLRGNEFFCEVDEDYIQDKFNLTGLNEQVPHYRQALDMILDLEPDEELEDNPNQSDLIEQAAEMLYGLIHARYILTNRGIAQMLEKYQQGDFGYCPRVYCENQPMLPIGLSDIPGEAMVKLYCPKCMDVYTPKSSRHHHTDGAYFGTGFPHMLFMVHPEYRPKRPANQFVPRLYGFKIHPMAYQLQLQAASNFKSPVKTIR

SMILES: Brc1c(Br)c(Br)c2[nH]nnc2c1Br [TBB, 4,5,6,7-tetrabromobenzotriazole, reference compound]
- Residual activity of CK1 (CK1 (casein kinase 1)): 91 percentage
- Residual activity of G-CK [1]: 95 percentage
- Residual activity of DYRK1a (DYRK1a): 22 percentage

SMILES: CNc1nc2c(Br)c(Br)c(Br)c(Br)c2[nH]1 [2-Methylamino-4,5,6,7-tetrabromo-1H-benzimidazole]
- Ki (CK2; [4]): 0.09 µM
- melting point: 283 to 285 °C

SMILES: OCCNc1nc2c(Br)c(Br)c(Br)c(Br)c2[nH]1 [2-Ethanolamine-4,5,6,7-tetrabromo-1H-benzimidazole]
- Ki (CK2; [4]): 0.13 µM
- melting point: 216 to 218 °C

SMILES: CN(C)CCNc1nc2c(Br)c(Br)c(Br)c(Br)c2[nH]1 [2-(2-Dimethylaminoethylamino)-4,5,6,7-tetrabromo-1H-benzimidazole]
- Ki (CK2): 0.16 µM
- melting point: > 250 °C (dec.)

SMILES: CC(C)Nc1nc2c(Br)c(Br)c(Br)c(Br)c2[nH]1 [2-Isopropylamine-4,5,6,7-tetrabromo-1H-benzimidazole]
- Ki (CK2; [4]): 0.06 µM
- melting point: 288 to 290 °C (dec.)

SMILES: CC(O)CNc1nc2c(Br)c(Br)c(Br)c(Br)c2[nH]1 (stereo not drawn) [2-(2-hydroxypropylamino)-4,5,6,7-tetrabromo-1H-benzimidazole]
- Ki (CK2; [4]): 0.14 µM
- melting point: 258 to 260 °C

SMILES: CN(C)c1nc2c(Br)c(Br)c(Br)c(Br)c2[nH]1 [Example K25, 2-Dimethylamino-4,5,6,7-tetrabromo-1H-benzimidazole]
- Residual activity of CK1 (CK1 (casein kinase 1)): 87 percentage
- Residual activity of G-CK [1]: 92 percentage
- Residual activity of DYRK1a (DYRK1a): 2 percentage
- Cytotoxic effect compared with TBB ([2]; FIG. 1): several times higher
- Cytotoxic effect compared with TBB ([2]; FIG. 1, listed as 2-dimethylamino-4,5,6,7-tetrabromobenzimidazole): several times more active
- Activation of caspase (degradation of HS1 and PARP) [3]: Activation of caspase
- Depolarization of isolated mitochondria (isolated mitochondria): does not cause depolarization

SMILES: Nc1nc2c(Br)c(Br)c(Br)c(Br)c2[nH]1 [2-amino-4,5,6,7-tetrabromobenzimidazole, reference compound]
- Ki (CK2; [4]): 0.09 µM
